Reference: patent EP0009777A1, “Retinoic- and 7,8-dehydro-retinoic-acid-N-(carboxy)phenyl amides, process for their preparation and pharmaceutical compositions containing them” (BASF Aktiengesellschaft, priority 1978, dated 1980)

Each compound was assayed on Hamster-Tracheen-Gewebe (assay: Reversal of keratinisation induced by vitamin A deficiency in hamster tracheal tissue (organ culture; methods of Clamon et al. 1974, Sporn et al. 1975)). Conditions: Mesocricetus auratus, keratinisation induced by vitamin A hypovitaminosis, read-out: Konzentration, in der die Keratinisierung von Hamster-Tracheen-Gewebe rückgängig gemacht / geheilt wird (wirksam).
Type: cell-based
Description: (§1) Nachteilig an diesen bekannten Retinsäureamiden ist ihre geringe therapeutische Breite. Die Substanzen zeigen entweder eine vergleichsweise geringe Aktivität oder wie wirken schon in vergleichsweise geringen Dosen toxisch. So kann beispielsweise Retinsäure-N-etylamid schon in 2 x 10-^9 molaren Konzentrationen die durch Vitamin A-Hypovitaminose induzierte Keratinisierung von Hamster-Tracheen--Gewebe wieder rückgängig machen. Die Methodik hierzu kann G.H. Clamon et al Nature 250; 64-66 (1974) oder M.B. Sporn et al Nature 253, 47-50 (1975)) entnommen werden. Die Keratinisierung wird als praekanzerotischer Prozeß angesehen. Das Retinsäure-N-ethylamid wirkt bereits in einer Konzentration von 9 x 10-^7 molar toxisch auf Tracheenknorpelgewebe vom Hamster in Kultur, wie von M.B. Sporn et al in Nature 263, 110-113 (1976) beschrieben ist.
Bei der Prophylaxe von Praekanzerosen an keratinisiertem Hamster-Tracheen-Gewebe ist die freie Säure jedoch noch in 10^-10 molarer Konzentration wirksam und damit wesentlich aktiver als der Ethylester.

| Structure (SMILES) | minimal effective concentration |
| --- | --- |
| CCOC(=O)c1ccc(NC(=O)/C=C(C)/C=C/C=C(C)/C=C/C2=C(C)CCCC2(C)C)cc1 [Retinsäure-N-(p-ethoxycarbonyl)-phenylamid, reference compound] | 0.01 µM |
| CCNC(=O)/C=C(C)/C=C/C=C(C)/C=C/C1=C(C)CCCC1(C)C [Retinsäure-N-ethylamid, reference compound] | 0.002 µM |
| CC1=C(/C=C/C(C)=C/C=C/C(C)=C/C(=O)Nc2ccc(C(=O)O)cc2)C(C)(C)CCC1 [all-E-Retinsäure-N-(p-carboxy)-phenylamid] | 0.0001 µM |

Same assay, conditions: keratinisation induced by vitamin A hypovitaminosis

| Structure (SMILES) | Konzentration, in der die Keratinisierung von Hamster-Tracheen-Gewebe rückgängig gemacht / geheilt wird (wirksam) |
| --- | --- |
| CC1=C(/C=C/C(C)=C/C=C/C(C)=C\C(=O)Nc2cccc(C(=O)O)c2)C(C)(C)CCC1 [13-Z-Retinsäure-N-(m-carboxy)-phenylamid] | Entsprechende Resultate |
| CC1=C(/C=C/C(C)=C/C=C/C(C)=C\C(=O)Nc2ccccc2C(=O)O)C(C)(C)CCC1 [13-Z-Retinsäure-N-(o-carboxy)-phenylamid] | Entsprechende Resultate |
| CC1=C(/C=C/C(C)=C/C=C/C(C)=C\C(=O)Nc2ccc(C(=O)O)cc2)C(C)(C)CCC1 [13-Z-Retinsäure-N-(p-carboxy)-phenylamid] | Entsprechende Resultate |
| CC1=C(C#C/C(C)=C/C=C/C(C)=C/C(=O)Nc2cccc(C(=O)O)c2)C(C)(C)CCC1 [all-E-7,8-Dehydro-retinsäure-N-(m-carboxy)-phenylamid] | Entsprechende Resultate |
| CC1=C(C#C/C(C)=C/C=C/C(C)=C/C(=O)Nc2ccccc2C(=O)O)C(C)(C)CCC1 [all-E-7,8-Dehydro-retinsäure-N-(o-carboxy)-phenylamid] | Entsprechende Resultate |
| CC1=C(C#C/C(C)=C/C=C/C(C)=C/C(=O)Nc2ccc(C(=O)O)cc2)C(C)(C)CCC1 [all-E-7,8-Dehydro-retinsäure-N-(p-carboxy)-phenylamid] | Entsprechende Resultate |
| CC1=C(/C=C/C(C)=C/C=C/C(C)=C/C(=O)Nc2cccc(C(=O)O)c2)C(C)(C)CCC1 [all-E-Retinsäure-N-(m-carboxy)-phenylamid] | Entsprechende Resultate |
| CC1=C(/C=C/C(C)=C/C=C/C(C)=C/C(=O)Nc2ccccc2C(=O)O)C(C)(C)CCC1 [all-E-Retinsäure-N-(o-carboxy)-phenylamid] | Entsprechende Resultate |

Each compound was assayed on Tracheenknorpelgewebe vom Hamster (assay: Toxicity on hamster tracheal cartilage tissue in culture (Sporn et al. 1976)). Conditions: result in words; test not named, presumably the tracheal cartilage culture.
Type: cell-based
Description: as §1

| Structure (SMILES) | celluläre Toxizität |
| --- | --- |
| CCOC(=O)c1ccc(NC(=O)/C=C(C)/C=C/C=C(C)/C=C/C2=C(C)CCCC2(C)C)cc1 [Retinsäure-N-(p-ethoxycarbonyl)-phenylamid, reference compound] | geringe celluläre Toxizität |
| CC1=C(/C=C/C(C)=C/C=C/C(C)=C/C(=O)Nc2ccc(C(=O)O)cc2)C(C)(C)CCC1 [all-E-Retinsäure-N-(p-carboxy)-phenylamid] | ebenso geringe Toxizität wie der entsprechende Ethylester |
